# Measured values from US20230293473A1, “THERAPEUTIC DRUG FOR DISEASE CAUSED BY INTESTINAL IMMUNE DISORDER” (KEIO UNIVERSITY, priority 2020, published 2023).
# Experiments:
# colonic APCs = assay: In vitro Treg induction assay: naive CD4+ cells with colonic APCs in the presence of muscarine; format: cell-based; settings: colonic APCs from WT mice precultured with muscarine
# Description: Naive CD4^+ cells were isolated from spleen in WT mice using naive CD4^+ T cell isolation kit. Naive CD4^+ cells (1×10^5) were cultured in RPMI-1640 medium supplemented with 10% FBS, 2 mM glutamine, 100 U/ml penicillin, 100 µg/ml streptomycin, and 55 μM 2-mercaptoethanol in 96 well plate.
# a, Three-dimensional reconstruction of CX3CR1^+ APC (green) and enteric neurons (purple) in colon in mice. b, Three-dimensional reconstruction of MHCII^+ APC (green), enteric Tuj^+ neurons (purple), and Foxp3^+ Tregs (yellow). c, d, Anatomical diagram (c) and operative field (d) for subdiaphragmatic truncal vagotomy. e, f, Colonic T cell phenotypes in mice after VGx surgery. […] Quantification (n=6/group). […]
# HVx mice = assay: In vivo administration of bethanechol, GTS-21 or MLA to HVx mice; colonic APC and Treg phenotypes
# Description: Bilateral or unilateral (left or right) subdiaphragmatic vagotomy was performed as previously reported (FIGS. 5c and 5d)^52. A midline incision was made to provide wide exposure of the upper abdominal organ in male mice anesthetized with the combination of medetomidine, midazolam, and butorphanol. The bilateral subdiaphragmatic trunks of vagal nerves along the esophagus were exposed and cut. In the sham operation group, these vagal trunks were exposed but not cut. Selective hepatic vagotomy (HVx) was performed as described (FIG. 7)^25. The ventral subdiaphragmatic vagal trunk was exposed as described above under anesthesia. […]
# FIG. 3 The liver-brain-gut axis regulates colonic Treg homeostasis through muscarinic signaling in APC. a-d, WT and mAChR TKO mice were subjected to Sham or HVx. e, WT and mAchR TKO mice were subjected to Sham or HVx and injected additionally treated with bethanechol (BETH; i.p. 300 μg/day) every day. Phenotypes of colonic immune cell were analyzed at day 2 after surgery (n=5/group). a, Frequency of ALDH^+ cells among MHC-II^+ colonic APCs. […] Quantification (right panel). b, Aldh1a1 and Aldh1a2 mRNA expression in colonic APC. c, e, Frequency of Foxp3^+ cells among CD4^+ cells in the colon. d, Frequency of RORγt^+ cells among colonic Foxp3^+ Tregs. […]
# [1] = tested on: common hepatic branch of the vagus nerve; assay: pERK immunostaining in nodose ganglion after capsaicin deafferentation of the common hepatic branch of the vagus nerve; format: in vivo, mice
# Description: The hepatic branch of the vagal trunk was freed from the surrounding tissues by paraffin paper and then wrapped for 30 minutes with cotton bud soaked with vehicle (Tween 80: olive oil=1:9) alone or 10 mg/ml capsaicin dissolved in the vehicle solution. The cotton string was removed 30 minutes later and the abdominal incision was closed^28. pEKR1/2 and c-Fos expression were analyzed immunohistochemically as reported 1. DSS-treated mice were transcardially perfused with PBS including 4% paraformaldehyde and 0.2% picric acid under anesthesia. The nodose ganglions and brains were collected, post-fixed in the same fixative for 2 hours to overnight at 4° C. and then incubated in phosphate buffer containing 30% sucrose for 48 hours. Longitudinal sections (8 μm) of NGs were cut with 48 μm intervals using a precision cryostat (Leica Microsystems, IL). Coronal sections (40 μm) of hindbrain were cut with 120 μm intervals using a freezing microtome. Rabbit polyclonal antibody to pERK1/2 (1/500) and Alexa 488-conjugated goat anti-rabbit IgG (1/500) were used. Fluorescence images were acquired with BX50 microscope and DP50 digital camera (Olympus). […] Neurons immunoreactive to pERK1/2 and c-Fos in medial NTS were counted. […] Representative fluorescence images of Alexa Fluor 488^+ neuron (green) and DAPI (blue) in NG at 1 week after injection of WGA in liver (c) and quantification (d). […]
# [2] = tested on: hepatic vagal sensory afferents; assay: Selective hepatic vagal afferent blockade by perivagal application of capsaicin; colonic Treg and APC analysis; format: in vivo, mice; settings: perivagal capsaicin 10 mg/ml, 30 minutes; day 2
# Description: The hepatic branch of the vagal trunk was freed from the surrounding tissues by paraffin paper and then wrapped for 30 minutes with cotton bud soaked with vehicle (Tween 80: olive oil=1:9) alone or 10 mg/ml capsaicin dissolved in the vehicle solution. The cotton string was removed 30 minutes later and the abdominal incision was closed^28. Aldehyde dehydrogenase (ALDH) activity was determined using ALDEFLUOR staining kit according to the manufacturer's protocol. In brief, cells were suspended at a concentration of 10^6 cells/ml in ALDEFLUOR assay buffer containing activated ALDEFLUOR substrate (final concentration of 1.5 μM) with or without the ALDH inhibitor diethylaminobenzaldehyde (DEAB) (final concentration of 15 μM) and incubated at 37° C. for 30 minutes. […] Phenotypic analysis of T cell and APC in colon was performed at day 2 after application of capsaicin (c, d, n=16/group; e, f, n=8/group). a, b, Representative fluorescence images of TRPV1 (red) and DAPI (blue) in NG (a) and Th4-DRG (b). […] Quantification (right panel). d, Frequency of RORγt^+ cells among colonic Foxp3^+ Tregs. […] TRPV1^+ nerves in spinal cord (Th4-7 and Th13) and colonic immune cells were analyzed at day 7 after administration. g, Fluorescent immunohistochemistry of TRPV1^+ neuron in spinal cord (bar: 200 μm). […]
smiles,measurement,setting,value
C[C@@H]1O[C@H](C[N+](C)(C)C)C[C@H]1O [muscarine],generation of Foxp3+ Tregs,colonic APCs,enhanced
CC(C[N+](C)(C)C)OC(N)=O (stereo not drawn) [bethanechol],frequency of pTregs,"HVx mice; HVx WT mice, BETH i.p. 300 μg/day",increased
same,Aldh1a1 and Aldh1a2 expression in colonic APCs,"HVx mice; HVx mice compared with sham-operated mice, BETH i.p. 300 μg/day for 2 days",restored
COc1cc(CNC(=O)CCCC/C=C/C(C)C)ccc1O [capsaicin],number of pERK positive cells in the left NG,[1],significantly reduced
same,aldehyde dehydrogenase activity in APCs,[2],reduced
same,colonic Treg numbers,[2],reduced
